Read-outs that look alike come from different tables or passages of the source.
How the values were obtained:
rSmTAChE [1] = target: T1, rSmTAChE (Schistosoma mansoni, UniProt A0A3Q0KMM5); assay: biochemical
rSmTAChE [2] = target: T1, rSmTAChE; assay type: biochemical
[3] = target: recombinant human acetylcholinesterase, rHsAChE (Homo sapiens, UniProt P22303); assay: biochemical; conditions: for IC50: read-out: qAC50 (IC50), rHsAChE
[4] = read-out: qAC50 (IC50), rSmTAChE
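For Inhibition (%) (Average) in this document: mostly 20 µM final but a few compounds at 5 or 10 µM.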
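For Inhibition (%) Replicate A in this document: mostly 20 µM final but a few compounds at 5 or 10 µM.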
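For Inhibition (%) Replicate B in this document: mostly 20 µM final but a few compounds at 5 or 10 µM.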

T1 sequence (A0A3Q0KMM5 27-661 limits assumed): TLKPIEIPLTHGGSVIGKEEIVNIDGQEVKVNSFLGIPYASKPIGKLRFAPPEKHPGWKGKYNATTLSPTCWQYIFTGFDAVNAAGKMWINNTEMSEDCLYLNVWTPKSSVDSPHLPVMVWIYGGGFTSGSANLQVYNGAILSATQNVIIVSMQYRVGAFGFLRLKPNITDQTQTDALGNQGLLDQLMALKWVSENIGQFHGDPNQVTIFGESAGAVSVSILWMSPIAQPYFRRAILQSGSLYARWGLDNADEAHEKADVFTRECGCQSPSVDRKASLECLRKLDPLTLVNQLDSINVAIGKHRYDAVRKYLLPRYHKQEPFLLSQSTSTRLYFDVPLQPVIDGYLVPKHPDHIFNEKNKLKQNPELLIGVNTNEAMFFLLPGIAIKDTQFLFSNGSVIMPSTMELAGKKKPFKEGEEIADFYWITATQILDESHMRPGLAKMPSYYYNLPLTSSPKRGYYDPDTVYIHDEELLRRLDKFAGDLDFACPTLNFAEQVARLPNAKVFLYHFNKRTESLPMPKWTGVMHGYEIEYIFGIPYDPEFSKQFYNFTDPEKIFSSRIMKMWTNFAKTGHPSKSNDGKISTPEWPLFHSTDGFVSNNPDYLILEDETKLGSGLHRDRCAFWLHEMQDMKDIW
Sequence of recombinant human acetylcholinesterase, rHsAChE (P22303 32-614): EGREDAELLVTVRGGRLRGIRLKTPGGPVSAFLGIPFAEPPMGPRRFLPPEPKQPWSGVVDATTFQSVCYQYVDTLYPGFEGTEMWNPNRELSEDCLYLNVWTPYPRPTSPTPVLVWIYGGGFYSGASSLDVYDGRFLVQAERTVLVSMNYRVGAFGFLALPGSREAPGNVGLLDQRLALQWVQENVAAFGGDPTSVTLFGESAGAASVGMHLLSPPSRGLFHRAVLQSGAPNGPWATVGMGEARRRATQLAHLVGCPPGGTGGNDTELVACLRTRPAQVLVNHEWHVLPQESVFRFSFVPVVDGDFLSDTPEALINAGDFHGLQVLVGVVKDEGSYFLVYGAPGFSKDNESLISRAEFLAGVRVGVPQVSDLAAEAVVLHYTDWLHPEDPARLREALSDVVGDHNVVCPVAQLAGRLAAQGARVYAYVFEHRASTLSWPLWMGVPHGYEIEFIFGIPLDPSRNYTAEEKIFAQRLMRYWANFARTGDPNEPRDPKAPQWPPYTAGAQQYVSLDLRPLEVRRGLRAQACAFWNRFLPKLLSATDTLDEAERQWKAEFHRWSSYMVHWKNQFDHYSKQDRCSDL

Row | Compound | Inhibition (%) (Average) (rSmTAChE [1]) | Inhibition (%) Replicate A (rSmTAChE [1]) | Inhibition (%) Replicate B (rSmTAChE [1]) | Data Mode (curve class), rSmTAChE (rSmTAChE [2]) | Data Mode (curve class), rHsAChE [3] | IC50 (rSmTAChE [2]; [4]) | other results
1 | CCCC#Cc1ccc([C@H]2[C@@H](CO)N3C(=O)CN(S(=O)(=O)c4ccccc4C)C[C@@H]23)cc1 [BRD-K77990919-001-01-3] | 79.61% | 76.02% | 83.20% |  |  |  | rSmTAChE Data Mode (rSmTAChE [2]): inactive; rHsAChE Data Mode [3]: inactive
2 | O=c1sn(-c2cccc3ccccc23)c(=O)n1Cc1ccccc1 [BRD-K81330143-001-04-8] | 88.72% | 89.17% | 88.27% | inactive | inactive |  | 
3 | C[C@]12CC[C@@H]3c4ccc(O)cc4CC[C@H]3[C@@H]1CCC2=O [BRD-K81839095-001-25-1] | 94.45% | 91.12% | 97.78% | inactive | inactive |  | 
4 | C=CCNc1nc(NCC=C)nc(N2CCN(C(c3ccc(F)cc3)c3ccc(F)cc3)CC2)n1 [BRD-K82677201-001-01-6] | 71.59% | 72.90% | 70.28% | decreasing (weakly active) | decreasing (weakly active) | > 38 µM | IC50 [3]: > 38 µM
5 | O=C(O)CCc1cc(C(=O)c2ccc(OC3CCCC3)cc2O)ccc1OCc1ccc2c(=O)[nH]oc2c1 [BRD-K84925803-001-01-9] | 87.31% | 83.68% | 90.95% | decreasing (weakly active) | inactive | > 38 µM | 
6 | CC1CCCCOC(CN(C)C(=O)Nc2cccc3ccccc23)C(C)CN(C(C)CO)C(=O)c2cc(N(C)C)ccc2O1 (centres unmarked) [BRD-K85440939-001-01-5] |  |  |  |  |  |  | inhibition at 20 µM (rSmTAChE [1]; read-out: rSmTAChE HTS Inhibition (Ave, %)): 63.9%; rSmTAChE Data Mode (rSmTAChE [2]): decreasing; IC50 (µM) rHsAChE ([3]; Table 2, DOS-A library, Inactive = inactive at the maximum tested concentration (40 µM)): Inactive *
7 | C[C@H](CO)N1C[C@H](C)[C@H](CN(C)CC2CC2)OCc2ccccc2-c2c(n(C)c3ccccc23)C1=O [BRD-K90625171-001-01-1] | 64.57% | 64.87% | 64.27% |  |  |  | rSmTAChE Data Mode (rSmTAChE [2]): decreasing (weakly active); rHsAChE Data Mode [3]: inactive
8 | CN(Cc1ccc(C(C)(C)C)cc1)Cc1cccc2ccccc12 [BRD-K90630139-003-05-9] | 62.99% | 64.97% | 61.01% | inactive | decreasing (weakly active) |  | IC50 [3]: > 38 µM
9 | O=C(O)C1(C(=O)O)CCC1.[NH2-].[NH2-].[Pt+2] [BRD-K90947825-001-02-7] | 69.15% | 70.08% | 68.22% | decreasing | decreasing (weakly active) | 35.4 µM | IC50 [3]: > 38 µM
10 | CCCNC(=O)Nc1ccc(Oc2ncnc3cc(OC)c(OC)cc23)cc1Cl [BRD-K90993449-001-02-7] | 77.29% | 77.00% | 77.59% | decreasing (weakly active) | inactive | > 38 µM | 
11 | COc1ccc(NC(=O)Nc2ccc3c(c2)[C@H]2C[C@@H](CC(=O)NCc4ccccn4)O[C@H](CO)[C@H]2O3)cc1 [BRD-K96625719-001-01-4] | 74.63% | 75.38% | 73.88% |  |  |  | rSmTAChE Data Mode (rSmTAChE [2]): decreasing (weakly active); rHsAChE Data Mode [3]: inactive
12 | CC(C)=CCC/C(C)=C/CC/C(C)=C/CSc1ccccc1C(=O)O [BRD-K98453471-001-01-7] | 76.52% | 77.70% | 75.33% | decreasing | decreasing | 11.6 µM | IC50 [3]: 13.7 µM
13 | Cc1cc(Nc2ncc(Cl)c(Nc3ccccc3S(=O)(=O)C(C)C)n2)c(OC(C)C)cc1C1CCNCC1 [Ceritinib, reference compound] |  |  |  | decreasing |  |  | inhibition at 20 µM (rSmTAChE [1]; read-out: HTS/rSmTAChE Inhibition (Ave, %)): 67%; SI (Hs/Sm) (rSmTAChE [2]): 1.58; Data Mode (curve class), rHsAChE ([3]; dose response analysis of Drug Repurposing Hub hits against rHsAChE): decreasing (weakly active)
14 | N.N.[Cl][Pt][Cl] [Cisplatin, reference compound] | 89.23% | 89.47% | 88.99% | decreasing | decreasing (weakly active) |  | HTS/rSmTAChE Inhibition (Ave, %) (rSmTAChE [1]; 20 µM): 89.23%; SI (Hs/Sm) (rSmTAChE [2]): 9.97; fold greater potency/selectivity for SmTAChE vs. HsAChE (Selectivity Index) (rSmTAChE [2]): about 10 fold; IC50 (rSmTAChE [2]; read-out: IC50 (µM) rSmTAChE): 3.81 µM
